Publication PMC4879574, “Identification of Leishmania donovani Topoisomerase 1 inhibitors via intuitive scaffold hopping and bioisosteric modification of known Top 1 inhibitors” (Scientific Reports, 2016)
Read-outs that look alike come from different tables or passages of the source.

Legend:
[1] = molecular target: Leishmania donovani Topoisomerase 1 (LdTop1) (Leishmania donovani, UniProt A0A3Q8IHS4+Q8WQM6); experiment: Plasmid DNA relaxation assay, LdTop1 (simultaneous incubation); format: biochemical
Protocol: (§1) To investigate the inhibitory effect of our library compounds on the DNA relaxation activity of the recombinant Human and Leishmania topoisomerase 1 (Table 2), assays were performed involving supercoiled plasmid DNA, the enzymes (HTop1 and LdTop1) and our molecules. The enzymes were purified by the standard literature procedure.
All the experiments were conducted thrice and representative data from once set of them are expressed as mean ± SD.
(§2) The type I DNA topoisomerase are assayed by decreased mobility of the relaxed isomers of supercoiled pBS (SK^+) [pBlue-script (SK^+)] DNA in agarose gel. The relaxation assay was carried out as described previously with LdTop1B and HTop I, diluted in the relaxation buffer (25 mM Tris–HCl, pH 7.5, 5% glycerol, 0.5 mM DTT, 10 mM MgCl2, 50 mM KCl, […] and […] BSA) and supercoiled plasmid pBS (SK^+) DNA (85–95% were negatively supercoiled, with remainder being nicked circles)[9][28][29]. The reconstituted enzyme LdTop1B was assayed at 50 mM KCl concentration as described before. For all kinetic studies, the reaction mixtures containing the buffer and DNA were heated to 37 °C before addition of the enzymes. The reactions were rapidly quenched using stop solution and kept on ice. The gels were stained with ethidium bromide (EtBr) ([…]) and the amount of supercoiled monomer DNA band fluorescence were quantified by integration using Gel Doc 2000 under UV illumination (Bio-Rad Quantity One Software), as described previously.
Cells harvested from 1 litre of culture were separately lysed by lysozyme/sonication, and the proteins were purified through Ni-NTA (Ni^2+-nitriloacetate-agarose column (Qiagen, Hilden, Germany) followed by a phospho-cellulose column (P11 cellulose; Whatman, Maidstone Kent, UK) as described previously. Finally, the purified proteins LdTOP1L and LdTOP1S were stored at −70 °C. The concentrations of each protein were quantified by using Bradford Reagent (PIERCE, Thermo Fisher Scientific Inc., Rockford, USA). Purified LdTOP1L was mixed with purified LdTOP1S at a molar ratio of 1:1 to a total protein concentration of 0.5 mg/ml in reconstitution buffer [50 mM potassium phosphate, pH 7.5, 0.5 mM DTT, 1 mM EDTA, 0.1 mM PMSF and 10% (v/v) glycerol]. The mixture was dialyzed overnight at 4 °C and dialyzed fractions were used for plasmid relaxation activity.

[2] = molecular target: T1, Human Top1 (HTop1) (Homo sapiens, UniProt P11387); experiment: Plasmid DNA relaxation assay, HTop1; format: biochemical; details: averages of three experiments, read-out: HTop1 inhibition (EC50)
T1 construct: made in house; host or cells: Sf-9 insect cells infected with recombinant baculovirus (gift from Prof. J. J. Champoux)
T1 sequence (P11387 1-765): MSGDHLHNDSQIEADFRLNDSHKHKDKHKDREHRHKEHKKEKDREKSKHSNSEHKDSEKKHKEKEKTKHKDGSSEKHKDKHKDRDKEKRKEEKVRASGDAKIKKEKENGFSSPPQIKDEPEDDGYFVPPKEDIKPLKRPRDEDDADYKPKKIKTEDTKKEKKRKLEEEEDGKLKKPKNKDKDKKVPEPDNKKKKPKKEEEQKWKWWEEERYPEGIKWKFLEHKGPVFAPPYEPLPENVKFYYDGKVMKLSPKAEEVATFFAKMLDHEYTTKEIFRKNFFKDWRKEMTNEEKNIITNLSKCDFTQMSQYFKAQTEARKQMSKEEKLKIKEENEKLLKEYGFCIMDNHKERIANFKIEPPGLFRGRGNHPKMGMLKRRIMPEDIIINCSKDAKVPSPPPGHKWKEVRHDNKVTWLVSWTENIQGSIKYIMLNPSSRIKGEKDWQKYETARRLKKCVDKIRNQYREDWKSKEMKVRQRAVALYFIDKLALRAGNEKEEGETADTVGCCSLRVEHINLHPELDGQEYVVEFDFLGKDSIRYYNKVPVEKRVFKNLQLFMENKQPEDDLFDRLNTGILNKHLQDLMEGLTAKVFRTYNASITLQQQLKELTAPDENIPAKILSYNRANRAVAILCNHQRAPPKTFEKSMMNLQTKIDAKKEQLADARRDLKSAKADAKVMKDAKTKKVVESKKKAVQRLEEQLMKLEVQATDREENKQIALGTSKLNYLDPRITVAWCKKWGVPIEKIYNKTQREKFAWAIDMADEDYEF
Protocol: as §1, §2
The wild-type HTop1 (91 kDa) was purified from Sf-9 insect cells infected with the recombinant baculovirus (a kind gift from Prof. J. J. Champoux). Approximately, 1 * 10^9 Sf-9 cells were infected with the recombinant virus, and cells were harvested after 48-h of infection. The cells were lysed and enzyme was purified as described. Briefly, at 48 h post-infection, approximately 3 * 10^9 Sf-9 cells were harvested by centrifugation for 5 min at 400 * g. The cells were resuspended in 1 liter of ice-cold phosphate-buffered saline and centrifuged for 5 min at 400 * g. The nuclei were washed twice in 80 ml of lysis buffer minus Triton X-100 and resuspended in 40 ml of resuspension buffer (50 mM KCl, 10 mM Tris-Cl, pH 7.5, 2 mM MgCl2, 25 mM DTT, 0.4 mg/ml phenylmethylsulfonyl fluoride, 0.12 mg/ml aprotinin). The nuclear extract was stirred for 5 min at ~200 rpm. With continued stirring, 50 ml of polyethylene glycol (PEG) buffer (18% PEG 8000, 1 M NaCl, 10% glycerol) was added dropwise in order to precipitate the DNA. The PEG precipitate was pelleted by centrifugation and the resulting PEG supernatant was dialyzed against 4 liters of potassium phosphate buffer. The dialyzed PEG supernatant passed over a 10-ml bed volume of phosphocellulose (Whatman P11) equilibrated with PPB. The HTop1 flowed through the PS column and then passed over a Mono Q column followed by loaded onto a Mono S column. The Mono S column was eluted with a 25-ml 50–200 mM KPO4, pH 7.4, gradient. […] The peak Mono S fractions were pooled, concentrated with an Amicon ultrafiltration cell, dialyzed into storage buffer (50% glycerol, 10 mM Tris-hydrochloride, pH 7.5, 1 mM DTT, 1 mM EDTA), and stored at −20 °C.

[3] = plasmid DNA relaxation, averages of three experiments, read-out: LDTop1 inhibition (EC50)

Chain of Leishmania donovani Topoisomerase 1 (LdTop1) (Q8WQM6 entry or part of it): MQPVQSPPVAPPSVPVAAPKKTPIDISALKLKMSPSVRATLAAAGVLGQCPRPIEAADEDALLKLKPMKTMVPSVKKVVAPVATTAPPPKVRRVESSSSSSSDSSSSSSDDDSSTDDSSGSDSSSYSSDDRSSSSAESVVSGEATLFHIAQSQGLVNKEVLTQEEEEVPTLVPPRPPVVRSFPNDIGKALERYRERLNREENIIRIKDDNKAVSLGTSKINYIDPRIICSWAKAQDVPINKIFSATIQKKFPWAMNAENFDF
Chain of Leishmania donovani Topoisomerase 1 (LdTop1) (A0A3Q8IHS4 entry or part of it): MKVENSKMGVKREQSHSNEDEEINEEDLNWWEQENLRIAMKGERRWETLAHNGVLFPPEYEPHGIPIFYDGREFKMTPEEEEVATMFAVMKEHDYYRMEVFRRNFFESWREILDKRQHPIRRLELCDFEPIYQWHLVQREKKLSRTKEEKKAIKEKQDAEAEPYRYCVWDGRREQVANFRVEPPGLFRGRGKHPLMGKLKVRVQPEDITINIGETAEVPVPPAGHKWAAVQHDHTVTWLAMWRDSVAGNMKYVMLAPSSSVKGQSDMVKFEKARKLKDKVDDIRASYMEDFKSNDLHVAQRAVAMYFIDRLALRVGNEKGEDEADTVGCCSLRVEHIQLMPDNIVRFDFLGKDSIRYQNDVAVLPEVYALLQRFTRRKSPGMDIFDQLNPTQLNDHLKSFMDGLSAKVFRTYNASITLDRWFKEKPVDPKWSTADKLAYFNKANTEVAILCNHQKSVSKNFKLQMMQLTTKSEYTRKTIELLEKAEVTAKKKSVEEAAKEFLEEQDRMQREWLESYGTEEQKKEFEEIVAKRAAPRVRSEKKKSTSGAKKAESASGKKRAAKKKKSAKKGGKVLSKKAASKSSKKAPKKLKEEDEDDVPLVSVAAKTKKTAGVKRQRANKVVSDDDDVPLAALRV

Row | SMILES | EC50 [1, 3] | EC50 [2] | LdTop1 inhibitory activity ([1]; plasmid DNA relaxation) | other results
1 | Cc1cc2c(c(=O)[nH]1)C(=O)O/C2=C\c1ccccc1 [Compound 13] | > 100 µM | > 100 µM | – | –
2 | CC/C=C1\OC(=O)c2c1cc(C)[nH]c2=O [Compound 16] | > 100 µM | > 100 µM | no inhibitory activity at all | –
3 | Cc1cc2c(c(=O)[nH]1)C(=O)O/C2=C\c1c[nH]c2ccccc12 [Compound 5] | > 100 µM | > 100 µM | no inhibitory activity at all | –
4 | Cc1cc2c(c(=O)[nH]1)C(=O)O/C2=C\c1ccccc1Cl [Compound 21] | > 100 µM | > 100 µM | – | –

Second part, led by results:

Row | EC50 [1, 3] | EC50 [2] | LdTop1 inhibitory activity ([1]; plasmid DNA relaxation) | SMILES | other results
5 | > 100 µM | > 100 µM | – | Cc1cc2c(c(=O)[nH]1)C(=O)O/C2=C\c1ccccc1Br [Compound 20] | –
6 | > 100 µM | > 100 µM | – | Cc1cc2c(c(=O)[nH]1)C(=O)O/C2=C\c1ccc(Cl)cc1 [Compound 17] | –
7 | > 100 µM | > 100 µM | – | COc1ccc(/C=C2\OC(=O)c3c2cc(C)[nH]c3=O)cc1 [Compound 19] | –
8 | 17.4 ± 1.86 µM | > 100 µM | considerable activity | Cc1cc2c(c(=O)[nH]1)C(=O)O/C2=C\c1cccc(I)c1 [Compound 15] | inhibition at 12.5 µM ([1]; LdTop1 relaxation, 12.5 uM, read-out: % inhibition, mean data): 42.1%; inhibition at 25 µM ([1]; LdTop1 relaxation, 25 uM, read-out: % inhibition, mean data): 55.3%; % inhibition (CPT 100%), data 2 ([1]; LdTop1 relaxation, 50 uM): 74.2517%; inhibition at 50 µM ([1]; LdTop1 relaxation, 50 uM, read-out: % inhibition, mean data): 75.2%; inhibition at 100 µM ([1]; LdTop1 relaxation, 100 uM, read-out: % inhibition, mean data): 91.7%; inhibition at 12.5 µM ([1]; read-out: % inhibition (CPT 100%), data 1, LdTop1 relaxation, 12.5 uM): 41.1%; inhibition at 25 µM ([1]; read-out: % inhibition (CPT 100%), data 1, LdTop1 relaxation, 25 uM): 53.2%; inhibition at 50 µM ([1]; read-out: % inhibition (CPT 100%), data 1, LdTop1 relaxation, 50 uM): 76.2%; inhibition at 100 µM ([1]; read-out: % inhibition (CPT 100%), data 1, LdTop1 relaxation, 100 uM): 93%; inhibition at 12.5 µM ([1]; read-out: % inhibition (CPT 100%), data 2, LdTop1 relaxation, 12.5 uM): 43.1%; inhibition at 25 µM ([1]; read-out: % inhibition (CPT 100%), data 2, LdTop1 relaxation, 25 uM): 57.3%; inhibition at 50 µM ([1]; read-out: % inhibition (CPT 100%), data 2, LdTop1 relaxation, 50 uM): 74.3%; inhibition at 100 µM ([1]; read-out: % inhibition (CPT 100%), data 2, LdTop1 relaxation, 100 uM): 90.5%; EC50 ([1]; supplement sheet Ld Top 1 data, concentrations in uM, read-out: EC50 (LdTop1, supplement sheet)): 17.4 µM
9 | > 100 µM | > 100 µM | complete loss of activity | Cc1cc2c(c(=O)[nH]1)C(=O)O/C2=C\c1ccc(F)c(F)c1 [Compound 8] | –
